In patent US20260207777A1, “IMPROVED PEPTIDE INHIBITORS OF P53 BINDING PROTEIN 53BP1” (KAMAU THERAPEUTICS, INC., priority 2022, published 2026):

Key:
CD34+ HSPCs [1] = experiment: editing of CD34+ HSPCs with purified i53 variant proteins and HBB-SNP AAV donor; NGS of editing outcomes; format: cell-based, human; settings: for increase of % HDR over control edited without protein: FIG. 13, average across all concentrations (0.1, 0.2, 0.4 mg/mL) and of L67R and L67H; for increase in levels of HDR corrected alleles over DM / impact on % NHEJ: protein 0.4 mg/mL; for increase in levels of HDR corrected alleles over DM: L67R/L67H value is the average of both; for levels of % HDR corrected alleles: HBB-SNP AAV MOI 312.5 with protein 0.4 mg/mL, compared with 2500 MOI alone (8x the amount of AAV); for impact on % NHEJ: HBB-SNP AAV MOIs 312.5 and 2500
Procedure: (§1) Chemically-modified single guide RNAs (sgRNAs) used to edit CD34+ HSPCs at the HBB locus were purchased from Synthego. The sgRNA sequences were modified by adding 2′-O-methyl-3′-phosphorothioate at the three terminal nucleotides of the 5′ and 3′ ends. The target sequence for the HBB sgRNA is as follows: HBB: 5′[…]-3′ (SEQ ID NO: 74). Cas9 protein (SpyFi Cas9) was purchased from Aldevron. The RNPs were complexed at a Cas9:sgRNA molar ratio of 1:2.5 at 25° C. for 10-15 min prior to electroporation. Cells were collected, counted, and pelleted at 180 g×7 min. The cell pellets were resuspended in Maxcyte buffer with complexed RNPs and electroporated using a Maxcyte EXPERT ATx Nucleofector. After electroporation cells were plated at 3.5×10^5 cells/mL in media supplemented with cytokines and the desired AAV donor added at 5.0×10^2-2.5×10^4 vector genomes/cell. 24 h after nucleofection, cells were spun down, washed once with media, and seeded into AAV-free media at a density of 3.5×10^5 cells/mL.
(§2) CD34+ HPSCs were edited with protein variants 3 days post thaw and were harvested 2 days post nucleofection for NGS analysis or 3-5 days post nucleofection for GFP expression analysis. Editing reactions with proteins at a given concentration were repeated in duplicate or triplicate (either using the same CD34+ HSPC donor or across multiple donors).
24 h after nucleofection, cells were spun down, washed with media, and seeded into AAV and DNAPKi-free media at a density of 3.5×10^5 cells/mL.
The frequency of homology directed repair (HDR) and other editing outcomes at HBB were measured using Next Generation Sequencing (NGS). An NGS assay was developed to determine the frequency of at the HBB locus by quantifying the total number of alleles that have been either: (1) not edited (% WT), (2) changed by HDR to incorporate sequence differences present in the AAV repair template (% HR), or (3) mutated during the genome correction process resulting in a gene that produces mutant β-globin (% INDELs).
For this assay, genomic DNA was harvested from cells using a Quick-DNA 96 Plus Kit (Zymo Research). The DNA concentration was measured using a Qubit 1×dsDNA BR assay kit (ThermoFisher). Purified genomic DNA was then used to amplify the HBB locus via polymerase chain reaction (PCR). The PCR products were diluted using nuclease-free water to serve as the template DNA for targeted NGS library prep. A second PCR with primers carrying partial Illumina adapters was performed to amplify a 142 base pair sequence that includes the region of the HBB locus that is to be corrected during the genome correction process. The PCR products were diluted again to serve as templates in a third PCR reaction using Nextera XT index primers. This third PCR reaction was used to assign unique identifiers to each sample and to add the full length adapter sequences necessary for Illumina sequencing. The size of the PCR products was assessed on an Agilent BioAnalyzer. PCR products were then pooled, purified using a Qiagen PCR purification kit, and quantified using PicoGreen in order to ready the PCR products for sequencing.
Based on the PicoGreen concentration, the library of pooled PCR products was diluted to a final concentration of 4 nM. Sequencing was performed on a MiSeq system using an Illumina MiSeq sequencing reagent kit (V2, 300 cycles). A 10% PhiX control library was added to the sample library to improve sequence diversity and to allow for error rate measurements. The library was denatured and loaded at […] onto the sequencing reagent cartridge. The sequencing entails paired-end 150 base pair reads and dual indexing reads. The sequencing data was demultiplexed based on the sample indexes provided and FASTQ files for each sample are generated.
The FASTQ files were processed using the CRISPResso2 pipeline^3. The data was reported as % WT, % corrected by HR, and % INDELs. […]

CD34+ HSPCs [2] = experiment: editing of CD34+ HSPCs with purified i53 variant proteins and HBB-UBC-GFP AAV donor; flow cytometry; format: cell-based, human; settings: for increase of % HDR over DM: HBB-UBC-GFP AAV MOI 1250, protein 0.4 mg/mL, GFP integration in live cells, L67R/L67H value is the average of both; for increase in levels of GFP integration over control edited without protein: HBB-UBC-GFP AAV MOI 2500, average across all concentrations tested (0.1-0.8 mg/mL) and of L67R and L67H
Procedure: as §1, §2
Rates of targeted integration of the HBB UBC GFP donor were measured using a Beckman Coulter CytoFLEX. DAPI (Miltenyi Biotec) was used to discriminate live and dead cells. Flow cytometry data were analyzed using FlowJo 10 software.

CD34+ HSPCs [3] = experiment: DNA damage response (DDR) markers yH2AX and p21 in edited HSPCs; settings: protein 0.8 mg/mL; any given MOI (78.125-2500); 24 h post nucleofection
Procedure: In order to quantify the induction of the DNA damage response (DDR) pathways, a subset of edited cells was harvested 24 h post nucleofection to quantify DDR markers p21 and yH2AX^5.

53BP1 Tudor domain = 53BP1 Tudor domain (Homo sapiens, UniProt Q12888); experiment: Bio-Layer Interferometry (BLI) with immobilized 53BP1 Tudor domain; settings: biotin-labeled immobilized 53BP1 Tudor domain; 1:1 binding model
53BP1 Tudor domain, sequence (Q12888 1484-1603): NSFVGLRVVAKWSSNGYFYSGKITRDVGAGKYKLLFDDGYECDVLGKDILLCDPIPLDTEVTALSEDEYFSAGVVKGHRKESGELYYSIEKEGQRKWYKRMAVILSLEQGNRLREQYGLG
Procedure: Data were collected using an Octet R8 system (Sartorius). Purified 53BP1 Tudor domain was labeled at exposed primary amine groups with NHS-biotin using ChromaLINK NHS-Biotin protein labeling kit (Vector Laboratories). 1 equivalent of chromalink biotin was incubated with the 53BP1 Tudor domain for 2 hours and buffer exchanged into fresh PBS. Labeling efficiency was calculated to be approximately 1 biotin per molecule of 53BP1 Tudor domain. Octet SA Biosensor tips (Sartorius) were incubated with biotin-labeled 53BP1 Tudor domain (ligand) for 60-80 seconds. The labeled tip was then dipped in 1× binding buffer (Sartorius) for 60 seconds to remove excess ligand and achieve baseline. […] A range of analyte concentrations were tested from a highest to lowest concentration in nM (i.e. 200, 100, 50, 25, 12.5, 6.25, 3.125). The tips were then introduced to 1× binding buffer for 5 minutes and the response was continuously monitored to detect dissociation. A dissociation constant (KD) was calculated using a 1:1 binding model and the on-rate (ka) and off-rate […] were calculated as a change in response (nm) over time (sec).

CD34+ HSPCs [4] = experiment: validation of individual i53 variants via lentiviral expression; GFP integration by flow cytometry (HBB-UBC-GFP AAV); format: cell-based, human; settings: HBB-UBC-GFP AAV MOI=1250
Source text: Sequences of individual i53 variants of interest were cloned into the lentiviral-based expression plasmid described above. Hits were validated either as pooled “validation libraries” (variant and control plasmids manually mixed to generate a pool of 5-25 variants) or individually. Lentivirus generated from these plasmids was used to transduce CD34+ HSPC cells at MOIs of 0.5-1 at day 1 post thaw. […] Cells transduced with pooled validation libraries were edited in triplicate or quadruplet; cells transduced with individual variants were edited in duplicate.
For individual testing of variants, rates of integration of the HBB-UBC-GFP donor were measured using a Beckman Coulter CytoFLEX. DAPI (Miltenyi Biotec) was used to discriminate live and dead cells. mCherry expression was used to differentiate transduced cells from untransduced cells and rates of GFP integration were compared between the two populations to quantify the impact of lentiviral-based variant expression on HDR rates. Flow cytometry data were analyzed using FlowJo 10 software.

Row | Substance | increase of % HDR over control edited without protein (CD34+ HSPCs [1]; HBB-SNP AAV MOI 312.5) | increase of % HDR over control edited without protein (CD34+ HSPCs [1]; HBB-SNP AAV MOI 2500) | increase in levels of HDR corrected alleles over DM (CD34+ HSPCs [1]; HBB-SNP AAV MOI 312.5) | levels of % HDR corrected alleles (CD34+ HSPCs [1]) | increase in levels of HDR corrected alleles over DM (CD34+ HSPCs [1]; HBB-SNP AAV MOI 2500) | impact on % NHEJ (CD34+ HSPCs [1]) | increase of % HDR over DM (CD34+ HSPCs [2]) | increase in levels of GFP integration over control edited without protein (CD34+ HSPCs [2]) | p21 response (CD34+ HSPCs [3]) | yH2AX response (CD34+ HSPCs [3]) | rate of binding compared to parent i53 (53BP1 Tudor domain) | rates of GFP integration in mCherry+ live cells in relation to mCherry- control cells, compared with i53 and DM (CD34+ HSPCs [4])
1 | L67R: i53 variant with Arg at position 67 | 62% | 27% | 56% | approaching those using 2500 MOI alone | 44% | more significant impact on % NHEJ relative to i53 | 69% | 70% | not found to significantly increase | not found to significantly increase | measurably increased rate of binding compared to parent i53 | higher rates of GFP integration
2 | L67H: i53 variant with His at position 67 | 62% | 27% | 56% | approaching those using 2500 MOI alone | 44% | more significant impact on % NHEJ relative to i53 | 69% | 70% | – | – | measurably increased rate of binding compared to parent i53 | higher rates of GFP integration
